From ChEMBL document CHEMBL1201862, “PubChem BioAssay data set” (2004)
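How tested: cells in 96-well plates exposed to compound for 48 hours at five concentrations. GI50: concentration for 50% inhibition of growth.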 Activity calls are given as the source filed them. No stated cut-off is given here; in the data, active = GI50 up to about 1.1 µM and inactive = higher.

Key:
Experiment in all cases: DTP human tumour cell line panel, 48 h
[1] = tested on: NCI/ADR-RES
[2] = tested on: SF-268
[3] = tested on: 786-0
[4] = tested on: NCI-H226
[5] = tested on: KM12
[6] = tested on: MDA-N
[7] = tested on: HOP-62
[8] = tested on: HOP-92
[9] = tested on: SK-MEL-28
[10] = tested on: CAKI-1
[11] = tested on: IGROV-1
[12] = tested on: HT-29
[13] = tested on: K562
[14] = tested on: NCI-H23
[15] = tested on: DU-145
[16] = tested on: LOX IMVI
[17] = tested on: HCT-15
[18] = tested on: COLO 205
[19] = tested on: HL-60
[20] = tested on: SNB-19

Structure (SMILES)	GI50 [1]	GI50 [2]	GI50 [3]	GI50 [4]	GI50 [5]	GI50 [6]	GI50 [7]	GI50 [8]	GI50 [9]	GI50 [10]	GI50 [11]	GI50 [12]	GI50 [13]	GI50 [14]	GI50 [15]	GI50 [16]	GI50 [17]	GI50 [18]	GI50 [19]	GI50 [20]
CCc1c[n+]2c(cc1C1=CN3c4ccccc4[C@]45CCN6C/C(=C/CO)[C@H](C[C@H]64)[C@@H]([C@@H]1O)[C@H]35)-c1[nH]c3ccccc3c1CC2	> 50 µM (inactive)	> 50 µM (inactive)	> 50 µM (inactive)	> 50 µM (inactive)	> 50 µM (inactive)	> 50 µM (inactive)	> 50 µM (inactive)	> 50 µM (inactive)	> 50 µM (inactive)	> 50 µM (inactive)	> 50 µM (inactive)	> 50 µM (inactive)	> 50 µM (inactive)	> 50 µM (inactive)	> 50 µM (inactive)	> 50 µM (inactive)	> 50 µM	> 50 µM (inactive)	> 50 µM (inactive)	> 50 µM (inactive)
CNC(=O)c1ccccc1-[s+]1c2ccccc2c(=O)n1C (stereo not given)	> 100 µM (inactive)	> 100 µM (inactive)	> 100 µM (inactive)	> 100 µM (inactive)	> 100 µM (inactive)	> 100 µM (inactive)	> 100 µM (inactive)	> 100 µM (inactive)	> 100 µM (inactive)	> 100 µM (inactive)	> 100 µM (inactive)	> 100 µM (inactive)	> 100 µM (inactive)	> 100 µM (inactive)	> 100 µM (inactive)	> 100 µM (inactive)	> 100 µM	> 100 µM (inactive)	> 100 µM (inactive)	> 100 µM (inactive)
CC[P+](C#Cc1ccccc1)(c1ccccc1)c1ccccc1	38.9 µM (inactive)	3.03 µM (inactive)	1.57 µM (inactive)	2.82 µM (inactive)	1.22 µM (inactive)	1.56 µM (inactive)	2.44 µM (inactive)	1.92 µM (inactive)	1.95 µM (inactive)	9.66 µM (inactive)	3.1 µM (inactive)	2.43 µM (inactive)	0.224 µM (active)	2.17 µM (inactive)	3.46 µM (inactive)	1.82 µM (inactive)	3.19 µM	1.06 µM (active)	0.324 µM (active)	5.92 µM (inactive)
O=C(CCc1ccc(O)c(O)c1)NCCc1cc(O)cc(OCc2ccccc2)c1	43.5 µM (inactive)	31.4 µM (inactive)	45.7 µM (inactive)	58.7 µM (inactive)	29.7 µM (inactive)	19.5 µM (inactive)	61.1 µM (inactive)	36.5 µM (inactive)	44.3 µM (inactive)	12.6 µM (inactive)	39.1 µM (inactive)	38.9 µM (inactive)	37 µM (inactive)	21.6 µM (inactive)	43.3 µM (inactive)	26.3 µM (inactive)	11.6 µM	20.6 µM (inactive)	10.9 µM (inactive)	6.22 µM (inactive)
C[C@@H]1[C@@H](c2ccccc2)O[B-](c2ccccc2)(c2ccccc2)N1C	54.5 µM (inactive)	64 µM (inactive)	65.8 µM (inactive)	36.5 µM (inactive)	52.1 µM (inactive)	52 µM (inactive)	> 100 µM (inactive)	27.8 µM (inactive)	52.1 µM (inactive)	27.9 µM (inactive)	69 µM (inactive)	85.9 µM (inactive)	36.4 µM (inactive)	35.6 µM (inactive)	63.1 µM (inactive)	61.9 µM (inactive)	40.2 µM	22.3 µM (inactive)	15.3 µM (inactive)	> 100 µM (inactive)
